Key:
[1] = Evaluation of conversion rate to active form in buffer solution (Experimental Example 1); assay type: physicochemical; settings: for Stability in buffer solution at pH 5: up to 2 or 3 hours
Description: For Examples 1 to 16 and Comparative Examples 1 to 14, the attrition rate of the test compound and the conversion rate of the test compound to Alvocidib in a buffer solution were calculated by the following method.
Examples 1 to 16 and Comparative Examples 1 to 14 were each left in buffer solutions adjusted to pH 5.0, 5.5, 6.0, 6.5, 7.0 and 7.4, respectively, at a concentration of 25 umol/L at 37° C. After 0, 0.5, 1, 2 and 3 hours, the residual rates of the compounds of Examples […] and the production rate of Alvocidib were determined by HPLC.
The buffer solutions used at each pH are as follows. • pH 5.0: 50 mM citrate buffer solution (pH 5.0) • pH 5.5: 50 mM citrate buffer solution (pH 5.5) • pH 6.0: 50 mM phosphate buffer solution (pH 6.0) • pH 6.5: 50 mM phosphate buffer solution (pH 6.5) • pH 7.0: 50 mM phosphate buffer solution (pH 7.0) • pH 7.4: 50 mM phosphate buffer solution (pH 7.4)
(§1) The measurement conditions for HPLC are as follows.

[2] = Stability evaluation of solution formulation (Experimental Example 2); assay type: physicochemical; settings: for Stability / conversion to Alvocidib in solution formulation at pH 3: pH 3, 5° C.; for Production rate of Alvocidib / Residual rate: solution formulation
Description: For Example 1, Example 2, Example 5, Example 6, Comparative Example 13 and Comparative Example 14, the attrition rate of the test compound and the conversion rate of the test compound to Alvocidib in a solution formulation were calculated by the following method.
Example 1, Example 2, Example 5, Example 6, Comparative Example 13 and Comparative Example 14 were each added to buffer solutions adjusted to pH 3.0, 4.0 and 5.0, respectively, at a concentration of 0.1 mg/mL, and left at 5° C. After 0, 1, 2 and 4 weeks, the residual rates of the compounds of Example 1, Example 2, […], Comparative Example 13 and Comparative Example 14 and the production rate of Alvocidib were determined by HPLC.
The buffer solutions used at each pH are as follows. • pH 3.0: 5 mM tartrate buffer solution/10% sucrose solution (pH 3.0) • pH 4.0: 5 mM tartrate buffer solution/10% sucrose solution (pH 4.0) • pH 5.0: 5 mM tartrate buffer solution/10% sucrose solution (pH 5.0)
as §1
• column: Acquity UPLC BEH C18, 1.7 um, 50×2.1 mm • column temperature: 40° C. • mobile phase: • A: water containing 0.1% trifluoroacetic acid • B: acetonitrile • A/B (min): • 80/20(0)→75/25(3)→0/100(3.5)→0/100(4)→80/20(4.01)→80/20(5) • flow rate: 0.8 mL/min • detection: ultraviolet visible detector, measurement wavelength 254 nm • injection: 3 μL

## CCCCCCC(=O)O[C@@H]1CN(C)CC[C@@H]1c1c(O)cc(O)c2c(=O)cc(-c3ccccc3Cl)oc12 [Comparative Example 11, reference compound]
[1]; pH7.4, 0 hr
  Production rate of Alvocidib: 1.0%
  Residual rate: 92.9%
[1]; pH 7.4, 37° C., up to 3 hours
  Conversion to Alvocidib at pH 7.4: slowly converted to Alvocidib
[1]; pH7.4, 0.5 hr
  Production rate of Alvocidib: 1.2%
  Residual rate: 92.3%
[1]; pH7.4, 1 hr
  Production rate of Alvocidib: 1.3%
  Residual rate: 91.8%
[1]; pH7.4, 2 hr
  Production rate of Alvocidib: 1.5%
  Residual rate: 91.3%

## CN1CC[C@H](c2c(OC(=O)N(C)CCN)cc(O)c3c(=O)cc(-c4ccccc4Cl)oc23)[C@H](O)C1 [Comparative Example 13, reference compound]
[2]; up to 4 weeks
  Stability / conversion to Alvocidib in solution formulation at pH 3: stable
[2]; pH 4, 5° C., up to 4 weeks
  Stability / conversion to Alvocidib in solution formulation at pH 4: gradually converted to Alvocidib
[2]; solution formulation pH 5, 5° C., after 4 weeks
  production rate of Alvocidib / converted to Alvocidib: about 40%
[2]; pH3.0, 0 week
  Production rate of Alvocidib: 0.1%
  Residual rate: 99.6%
[2]; pH3.0, 1 week
  Production rate of Alvocidib: 0.2%
  Residual rate: 99.3%
[2]; pH3.0, 2 week
  Production rate of Alvocidib: 0.3%
  Residual rate: 99.5%
[2]; pH3.0, 4 week
  Production rate of Alvocidib: 0.6%
  Residual rate: 99.1%
[2]; pH4.0, 0 week
  Production rate of Alvocidib: 0.2%
  Residual rate: 99.4%
[2]; pH4.0, 1 week
  Production rate of Alvocidib: 1.2%
  Residual rate: 98.1%
[2]; pH4.0, 2 week
  Production rate of Alvocidib: 2.2%
  Residual rate: 97.4%
[2]; pH4.0, 4 week
  Production rate of Alvocidib: 4.8%
  Residual rate: 94.4%
[2]; pH5.0, 0 week
  Production rate of Alvocidib: 1.4%
  Residual rate: 98.1%
[2]; pH5.0, 1 week
  Production rate of Alvocidib: 13.7%
  Residual rate: 84.3%
[2]; pH5.0, 2 week
  Production rate of Alvocidib: 25.3%
  Residual rate: 71.7%
[2]; pH5.0, 4 week
  Production rate of Alvocidib: 39.4%
  Residual rate: 55.9%
[1]; pH5.0, 0 hr
  Production rate of Alvocidib: 0.0%
  Residual rate: 99.8%
[1]; pH 5, 37° C.
  Stability in buffer solution at pH 5: unstable
[1]; pH5.0, 0.5 hr
  Production rate of Alvocidib: 2.2%
  Residual rate: 96.0%
[1]; pH5.0, 1 hr
  Production rate of Alvocidib: 4.1%
  Residual rate: 94.0%
[1]; pH5.0, 2 hr
  Production rate of Alvocidib: 8.3%
  Residual rate: 90.8%
[1]; pH5.0, 3 hr
  Production rate of Alvocidib: 12.3%
  Residual rate: 86.5%
[1]; pH5.5, 0 hr
  Production rate of Alvocidib: 0.0%
  Residual rate: 98.3%
[1]; pH5.5, 0.5 hr
  Production rate of Alvocidib: 6.5%
  Residual rate: 91.3%
[1]; pH5.5, 1 hr
  Production rate of Alvocidib: 11.9%
  Residual rate: 85.5%
[1]; pH5.5, 2 hr
  Production rate of Alvocidib: 22.6%
  Residual rate: 73.9%
[1]; pH5.5, 3 hr
  Production rate of Alvocidib: 32.2%
  Residual rate: 64.7%
[1]; pH6.0, 0 hr
  Production rate of Alvocidib: 0.0%
  Residual rate: 98.7%
[1]; pH6.0, 0.5 hr
  Production rate of Alvocidib: 23.8%
  Residual rate: 72.9%
[1]; pH6.0, 1 hr
  Production rate of Alvocidib: 40.3%
  Residual rate: 56.3%
[1]; pH6.0, 2 hr
  Production rate of Alvocidib: 63.0%
  Residual rate: 30.4%
[1]; pH6.0, 3 hr
  Production rate of Alvocidib: 75.5%
  Residual rate: 16.8%
[1]; pH6.5, 0 hr
  Production rate of Alvocidib: 0.2%
  Residual rate: 99.5%
[1]; pH6.5, 0.5 hr
  Production rate of Alvocidib: 51.7%
  Residual rate: 42.2%
[1]; pH6.5, 1 hr
  Production rate of Alvocidib: 73.5%
  Residual rate: 20.0%
[1]; pH6.5, 2 hr
  Production rate of Alvocidib: 87.1%
  Residual rate: 3.8%
[1]; pH6.5, 3 hr
  Production rate of Alvocidib: 90.0%
  Residual rate: 0.9%
[1]; pH7.0, 0 hr
  Production rate of Alvocidib: 0.5%
  Residual rate: 97.8%
[1]; pH7.0, 0.5 hr
  Production rate of Alvocidib: 82.2%
  Residual rate: 9.3%
[1]; pH7.0, 1 hr
  Production rate of Alvocidib: 89.7%
  Residual rate: 1.3%
[1]; pH7.0, 2 hr
  Production rate of Alvocidib: 91.0%
  Residual rate: 0.0%
[1]; pH7.0, 3 hr
  Production rate of Alvocidib: 91.0%
  Residual rate: 0.0%
[1]; pH7.4, 0 hr
  Production rate of Alvocidib: 1.3%
  Residual rate: 97.2%
[1]; pH7.4, 0.5 hr
  Production rate of Alvocidib: 90.5%
  Residual rate: 0.8%
[1]; pH7.4, 1 hr
  Production rate of Alvocidib: 91.2%
  Residual rate: 0.0%
[1]; pH7.4, 2 hr
  Production rate of Alvocidib: 91.4%
  Residual rate: 0.0%
[1]; pH7.4, 3 hr
  Production rate of Alvocidib: 92.1%
  Residual rate: 0.0%

## CNCCN(C)C(=O)Oc1cc(O)c2c(=O)cc(-c3ccccc3Cl)oc2c1[C@H]1CCN(C)C[C@H]1O [Comparative Example 14, reference compound]
[2]; up to 4 weeks
  Stability / conversion to Alvocidib in solution formulation at pH 3: gradually converted to Alvocidib
[2]; pH 5, 5° C., after 4 weeks
  Conversion to Alvocidib in solution formulation at pH 5 after 4 weeks: almost completely converted to Alvocidib
[2]; pH3.0, 0 week
  Production rate of Alvocidib: 1.3%
  Residual rate: 98.5%
[2]; pH3.0, 1 week
  Production rate of Alvocidib: 2.7%
  Residual rate: 97.1%
[2]; pH3.0, 2 week
  Production rate of Alvocidib: 3.9%
  Residual rate: 95.8%
[2]; pH3.0, 4 week
  Production rate of Alvocidib: 6.1%
  Residual rate: 93.6%
[2]; pH4.0, 0 week
  Production rate of Alvocidib: 2.2%
  Residual rate: 97.5%
[2]; pH4.0, 1 week
  Production rate of Alvocidib: 12.8%
  Residual rate: 86.7%
[2]; pH4.0, 2 week
  Production rate of Alvocidib: 21.1%
  Residual rate: 78.3%
[2]; pH4.0, 4 week
  Production rate of Alvocidib: 36.2%
  Residual rate: 63.0%
[2]; pH5.0, 0 week
  Production rate of Alvocidib: 13.2%
  Residual rate: 86.4%
[2]; pH5.0, 1 week
  Production rate of Alvocidib: 72.5%
  Residual rate: 25.7%
[2]; pH5.0, 2 week
  Production rate of Alvocidib: 90.1%
  Residual rate: 8.1%
[2]; pH5.0, 4 week
  Production rate of Alvocidib: 97.1%
  Residual rate: 1.1%
[1]; pH5.0, 0 hr
  Production rate of Alvocidib: 1.2%
  Residual rate: 97.3%
[1]; pH 5, 37° C.
  Stability in buffer solution at pH 5: unstable
[1]; pH 5, 37° C., within 3 hours
  Conversion to Alvocidib at pH 5 within 3 hours: mostly converted to Alvocidib
[1]; pH5.0, 0.5 hr
  Production rate of Alvocidib: 17.9%
  Residual rate: 80.3%
[1]; pH5.0, 1 hr
  Production rate of Alvocidib: 31.1%
  Residual rate: 66.8%
[1]; pH5.0, 2 hr
  Production rate of Alvocidib: 53.7%
  Residual rate: 45.6%
[1]; pH5.0, 3 hr
  Production rate of Alvocidib: 68.5%
  Residual rate: 30.7%
[1]; pH5.5, 0 hr
  Production rate of Alvocidib: 1.4%
  Residual rate: 97.2%
[1]; pH5.5, 0.5 hr
  Production rate of Alvocidib: 44.2%
  Residual rate: 53.8%
[1]; pH5.5, 1 hr
  Production rate of Alvocidib: 67.2%
  Residual rate: 30.3%
[1]; pH5.5, 2 hr
  Production rate of Alvocidib: 88.5%
  Residual rate: 8.7%
[1]; pH5.5, 3 hr
  Production rate of Alvocidib: 93.9%
  Residual rate: 2.9%
[1]; pH6.0, 0 hr
  Production rate of Alvocidib: 1.9%
  Residual rate: 96.7%
[1]; pH6.0, 0.5 hr
  Production rate of Alvocidib: 88.1%
  Residual rate: 9.0%
[1]; pH6.0, 1 hr
  Production rate of Alvocidib: 95.7%
  Residual rate: 1.2%
[1]; pH6.0, 2 hr
  Production rate of Alvocidib: 97.0%
  Residual rate: 0.0%
[1]; pH6.0, 3 hr
  Production rate of Alvocidib: 97.1%
  Residual rate: 0.0%
[1]; pH6.5, 0 hr
  Production rate of Alvocidib: 3.2%
  Residual rate: 95.4%
[1]; pH6.5, 0.5 hr
  Production rate of Alvocidib: 97.0%
  Residual rate: 0.0%
[1]; pH6.5, 1 hr
  Production rate of Alvocidib: 96.7%
  Residual rate: 0.0%
[1]; pH6.5, 2 hr
  Production rate of Alvocidib: 98.2%
  Residual rate: 0.0%
[1]; pH6.5, 3 hr
  Production rate of Alvocidib: 97.6%
  Residual rate: 0.0%
[1]; pH7.0, 0 hr
  Production rate of Alvocidib: 6.9%
  Residual rate: 91.7%
[1]; pH7.0, 0.5 hr
  Production rate of Alvocidib: 96.8%
  Residual rate: 0.0%
[1]; pH7.0, 1 hr
  Production rate of Alvocidib: 96.8%
  Residual rate: 0.0%
[1]; pH7.0, 2 hr
  Production rate of Alvocidib: 96.7%
  Residual rate: 0.0%
[1]; pH7.0, 3 hr
  Production rate of Alvocidib: 96.7%
  Residual rate: 0.0%
[1]; pH7.4, 0 hr
  Production rate of Alvocidib: 14.2%
  Residual rate: 84.4%
[1]; pH7.4, 0.5 hr
  Production rate of Alvocidib: 97.3%
  Residual rate: 0.0%
[1]; pH7.4, 1 hr
  Production rate of Alvocidib: 97.2%
  Residual rate: 0.0%
[1]; pH7.4, 2 hr
  Production rate of Alvocidib: 97.2%
  Residual rate: 0.0%
[1]; pH7.4, 3 hr
  Production rate of Alvocidib: 97.2%
  Residual rate: 0.0%

Source: patent US12617779B2, “Self degradation-type CDK9 inhibitor prodrug and liposome encapsulating same” (Sumitomo Pharma Co., Ltd., priority 2021, dated 2026)
